Several values for one entry are separate records, joined by “and”; a condition that tells them apart may be missing. Identical values can stand only once. Inconclusive results and toxic doses are left out. Rule for the calls: active = survival T/C of 150% or more; inactive = T/C below 125% in these data.
Test system: CD2F1 mice, L1210 leukemia ip, survival T/C
Test: NCI In Vivo Anticancer Drug Screen. Data for tumor model L1210 Leukemia (intraperitoneal) in CD2F1 (CDF1) mice
Conditions: higher = longer survival
Summary of the method: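 In this screen, transplantable tumors were grown in mice given either the compound or its vehicle. Results were expressed as the treated measurement relative to the control measurement.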

[1] = endpoint: mean survival time, dose: 6.25 mg/kg/injection, schedule: Q04DX003 (ip), vehicle: saline with Tween-80
[2] = endpoint: mean survival time, dose: 12.5 mg/kg/injection, schedule: Q04DX003 (ip), vehicle: saline with Tween-80
[3] = endpoint: mean survival time, dose: 25.0 mg/kg/injection, schedule: Q04DX003 (ip), vehicle: saline with Tween-80
[4] = endpoint: mean survival time, dose: 200.0 mg/kg/injection, schedule: Q04DX003 (ip), vehicle: saline with Tween-80
[5] = endpoint: mean survival time, dose: 12.5 mg/kg/injection, schedule: Q01DX009 (ip), vehicle: saline with Tween-80
[6] = endpoint: mean survival time, dose: 100.0 mg/kg/injection, schedule: Q01DX009 (ip), vehicle: saline with Tween-80
[7] = endpoint: mean survival time, dose: 200.0 mg/kg/injection, schedule: Q01DX009 (ip), vehicle: saline with Tween-80
[8] = endpoint: mean survival time, dose: 400.0 mg/kg/injection, schedule: Q01DX009 (ip), vehicle: saline with Tween-80
[9] = endpoint: mean survival time, dose: 100.0 mg/kg/injection, schedule: Q04DX003 (ip), vehicle: saline with Tween-80
[10] = endpoint: mean survival time, dose: 100.0 mg/kg/injection, schedule: Q01DX001 (ip), vehicle: saline
[11] = endpoint: mean survival time, dose: 400.0 mg/kg/injection, schedule: Q04DX003 (ip), vehicle: saline with Tween-80

Measured: T/C

[Co].[O-][Cl+3]([O-])([O-])O.c1ccc([PH+](CC[PH+](c2ccccc2)c2ccccc2)c2ccccc2)cc1.c1ccc([PH+](CC[PH+](c2ccccc2)c2ccccc2)c2ccccc2)cc1
inactive: [1] 94 % of control | [2] 98 % of control | [3] 110 % of control | [4] 91 % of control

C/C(=N/Nc1ccc([N+](=O)[O-])cc1[N+](=O)[O-])C(C)C
inactive: endpoint: mean survival time, dose: 75.0 mg/kg/injection, schedule: Q04DX002 (ip), vehicle: saline with Tween-80 95 % of control | endpoint: mean survival time, dose: 150.0 mg/kg/injection, schedule: Q04DX002 (ip), vehicle: saline with Tween-80 98 % of control | endpoint: mean survival time, dose: 300.0 mg/kg/injection, schedule: Q04DX002 (ip), vehicle: saline with Tween-80 98 % of control

COc1ccc2[nH]c3c(C)c4cc[n+](C)cc4c(C)c3c2c1
inactive: endpoint: mean survival time, dose: 3.13 mg/kg/injection, schedule: Q01DX009 (ip), vehicle: saline 120 % of control | endpoint: mean survival time, dose: 6.25 mg/kg/injection, schedule: Q01DX009 (ip), vehicle: saline with Tween-80 122 % of control | endpoint: mean survival time, dose: 6.25 mg/kg/injection, schedule: Q01DX009 (ip), vehicle: saline 120 % of control | [1] 105 % of control | [5] 87 % of control | endpoint: mean survival time, dose: 12.5 mg/kg/injection, schedule: Q01DX009 (ip), vehicle: saline 110 % of control | [2] 108 % of control | endpoint: mean survival time, dose: 25.0 mg/kg/injection, schedule: Q04DX003 (ip), vehicle: saline sonified 116 % of control | [3] 101 % of control | endpoint: mean survival time, dose: 37.5 mg/kg/injection, schedule: Q04DX003 (ip), vehicle: saline sonified 86 % of control

CC(C)CCCC(C)C1CCC2C3CCC4CCCCC4(C)C3CCC12C (stereo not given)
inactive: [6] 95 % of control | [7] 94 % of control | [8] 105 % of control

C=C(C)C(=O)OCC(O)C[N+](C)(C)C (stereo not given)
inactive: endpoint: mean survival time, dose: 50.0 mg/kg/injection, schedule: Q04DX003 (ip), vehicle: saline with Tween-80 96 % of control | [9] 87 % of control

CC(C)CP(=O)(CC(C)C)CC(C)C
inactive: endpoint: mean survival time, dose: 1.56 mg/kg/injection, schedule: Q04DX003 (ip), vehicle: saline with Tween-80 98 % of control | endpoint: mean survival time, dose: 3.13 mg/kg/injection, schedule: Q04DX003 (ip), vehicle: saline with Tween-80 98 % of control | [1] 101 % of control

O=S(=O)(/C=C\S(=O)(=O)c1ccccc1)c1ccccc1
inactive: endpoint: mean survival time, dose: 12.5 mg/kg/injection, schedule: Q01DX009 (ip), vehicle: Klucel (hydroxypropylcellulose) (HPC) 98 % of control | endpoint: mean survival time, dose: 25.0 mg/kg/injection, schedule: Q01DX009 (ip), vehicle: Klucel (hydroxypropylcellulose) (HPC) 95 % of control

O=C(N/N=C\C(O)C(O)C(O)C(O)CO)c1ccccc1 (stereo not given)
inactive: endpoint: mean survival time, dose: 75.0 mg/kg/injection, schedule: Q01DX001 (ip), vehicle: saline 100 % of control | endpoint: mean survival time, dose: 150.0 mg/kg/injection, schedule: Q01DX001 (ip), vehicle: saline 104 % of control | endpoint: mean survival time, dose: 300.0 mg/kg/injection, schedule: Q01DX001 (ip), vehicle: saline 106 % of control

CC(C)NC(=O)c1ccc(N=NN(C)C)cc1
inactive: endpoint: mean survival time, dose: 12.5 mg/kg/injection, schedule: Q01DX009 (ip), vehicle: other 91 % of control and 105 % of control | endpoint: mean survival time, dose: 25.0 mg/kg/injection, schedule: Q01DX009 (ip), vehicle: DMSO 104 % of control | endpoint: mean survival time, dose: 25.0 mg/kg/injection, schedule: Q01DX009 (ip), vehicle: other 119 % of control and 100 % of control | endpoint: mean survival time, dose: 50.0 mg/kg/injection, schedule: Q01DX009 (ip), vehicle: DMSO 110 % of control | endpoint: mean survival time, dose: 100.0 mg/kg/injection, schedule: Q01DX009 (ip), vehicle: other 119 % of control

c1ccc2c(c1)cnc1cc3c(cc12)ncc1ccccc13
inactive: [10] 98 % of control | endpoint: mean survival time, dose: 200.0 mg/kg/injection, schedule: Q01DX001 (ip), vehicle: saline 106 % of control | endpoint: mean survival time, dose: 400.0 mg/kg/injection, schedule: Q01DX001 (ip), vehicle: saline 116 % of control

CCCCCCCN(CCCCCCC)CC(OC(C)=O)c1cc2ccccc2c2cc(Br)ccc12 (stereo not given)
inactive: [9] 98 % of control | [4] 101 % of control | [11] 104 % of control

COc1ccc(COC(=O)Oc2ccc(C)cc2)cc1OC
inactive: [6] 100 % of control | [7] 102 % of control | [8] 98 % of control

NC(=O)c1cn(C2OC(CO)C(O)C2O)c2nc(N)nc(N)c2c1=O (stereo not given)
inactive: endpoint: mean survival time, dose: 12.5 mg/kg/injection, schedule: Q01DX005 (ip), vehicle: water 104 % of control | endpoint: mean survival time, dose: 25.0 mg/kg/injection, schedule: Q01DX005 (ip), vehicle: water 104 % of control | endpoint: mean survival time, dose: 50.0 mg/kg/injection, schedule: Q01DX005 (ip), vehicle: water 104 % of control | endpoint: mean survival time, dose: 100.0 mg/kg/injection, schedule: Q01DX005 (ip), vehicle: water 124 % of control | endpoint: median survival time, dose: 50.0 mg/kg/injection, schedule: Q01DX005 (ip), vehicle: saline with Tween-80 103 % of control and 107 % of control | endpoint: median survival time, dose: 100.0 mg/kg/injection, schedule: Q01DX005 (ip), vehicle: saline with Tween-80 105 % of control and 110 % of control | endpoint: median survival time, dose: 200.0 mg/kg/injection, schedule: Q01DX005 (ip), vehicle: saline with Tween-80 115 % of control and 106 % of control | endpoint: median survival time, dose: 400.0 mg/kg/injection, schedule: Q01DX005 (ip), vehicle: saline with Tween-80 117 % of control

CN(C)CCCN1c2ccccc2Sc2ccc(Cl)cc21
inactive: endpoint: mean survival time, dose: 12.5 mg/kg/injection, schedule: Q01DX001 (ip), vehicle: saline 107 % of control | [5] 115 % of control | endpoint: mean survival time, dose: 25.0 mg/kg/injection, schedule: Q01DX001 (ip), vehicle: saline 117 % of control | endpoint: mean survival time, dose: 25.0 mg/kg/injection, schedule: Q01DX009 (ip), vehicle: saline with Tween-80 86 % of control | endpoint: mean survival time, dose: 50.0 mg/kg/injection, schedule: Q01DX001 (ip), vehicle: saline 120 % of control | [10] 111 % of control | endpoint: mean survival time, dose: 200.0 mg/kg/injection, schedule: Q04DX003 (ip), vehicle: saline 97 % of control | endpoint: median survival time, dose: 15.0 mg/kg/injection, schedule: Q01DX001 (ip), vehicle: water 118 % of control and 107 % of control | endpoint: median survival time, dose: 25.0 mg/kg/injection, schedule: Q01DX001 (ip), vehicle: water 119 % of control and 107 % of control | endpoint: median survival time, dose: 30.0 mg/kg/injection, schedule: Q04DX003 (ip), vehicle: saline 80 % of control | endpoint: median survival time, dose: 50.0 mg/kg/injection, schedule: Q01DX001 (ip), vehicle: water 114 % of control and 120 % of control | endpoint: median survival time, dose: 60.0 mg/kg/injection, schedule: Q04DX003 (ip), vehicle: saline 80 % of control | endpoint: median survival time, dose: 75.0 mg/kg/injection, schedule: Q01DX001 (ip), vehicle: water 114 % of control | endpoint: median survival time, dose: 120.0 mg/kg/injection, schedule: Q04DX003 (ip), vehicle: saline 87 % of control

O=C1OCC/C1=C/c1cccc(O)c1
inactive: endpoint: mean survival time, dose: 6.25 mg/kg/injection, schedule: Q04DX002 (ip), vehicle: Klucel (hydroxypropylcellulose) (HPC) 103 % of control | endpoint: mean survival time, dose: 25.0 mg/kg/injection, schedule: Q04DX002 (ip), vehicle: Klucel (hydroxypropylcellulose) (HPC) 107 % of control

O=C1C(=O)c2ccccc2C(O)=C1CC1=C(O)c2ccccc2C(=O)C1=O
inactive: [9] 103 % of control | [4] 101 % of control | [11] 106 % of control

O=c1c(Cl)cc(Cl)cn1S(=O)(=O)c1ccc([N+](=O)[O-])cc1
inactive: [6] 100 % of control | [9] 102 % of control | [7] 102 % of control | [4] 102 % of control | [8] 98 % of control | [11] 101 % of control

CC(C)/C(=N\[N+](C)(C)C)c1ccccc1
inactive: endpoint: mean survival time, dose: 18.8 mg/kg/injection, schedule: Q01DX009 (ip), vehicle: saline 97 % of control | endpoint: mean survival time, dose: 37.5 mg/kg/injection, schedule: Q01DX009 (ip), vehicle: saline 96 % of control | endpoint: mean survival time, dose: 75.0 mg/kg/injection, schedule: Q01DX009 (ip), vehicle: saline 91 % of control

Source: PubChem BioAssay AID256 (DTP/NCI, 2004)
